Assay results reported in PubChem BioAssay AID330 (DTP/NCI, 2004).
Where “and” joins values, the source holds several entries; their conditions need not be identical. Equal entries are not always repeated. Toxic doses and inconclusive results are not listed. How the source made its calls: active means survival T/C of 150% or more; inactive means T/C below 125% in these data.

Test system: P388 leukemia ip, CD2F1 mice, survival T/C
Assay: NCI In Vivo Anticancer Drug Screen. Data for tumor model P388 Leukemia (intraperitoneal) in CD2F1 (CDF1) mice
Conditions: endpoint: median survival time, higher = longer survival
Summary of the method: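 Mice carrying the transplanted tumor received test compound or vehicle. Survival was recorded in each group, and the value is the treated-group measurement divided by that of the vehicle-treated control group.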

[1] = dose: 50.0 mg/kg/injection, schedule: Q01DX005 (ip), vehicle: Klucel (hydroxypropylcellulose) (HPC)
[2] = dose: 100.0 mg/kg/injection, schedule: Q01DX005 (ip), vehicle: Klucel (hydroxypropylcellulose) (HPC)
[3] = dose: 200.0 mg/kg/injection, schedule: Q01DX005 (ip), vehicle: Klucel (hydroxypropylcellulose) (HPC)
[4] = dose: 50.0 mg/kg/injection, schedule: Q01DX009 (ip), vehicle: saline
[5] = dose: 100.0 mg/kg/injection, schedule: Q01DX009 (ip), vehicle: saline with Tween-80
[6] = dose: 200.0 mg/kg/injection, schedule: Q01DX009 (ip), vehicle: saline with Tween-80
[7] = dose: 60.0 mg/kg/injection, schedule: Q01DX005 (ip), vehicle: Klucel (hydroxypropylcellulose) (HPC)
[8] = dose: 120.0 mg/kg/injection, schedule: Q01DX005 (ip), vehicle: Klucel (hydroxypropylcellulose) (HPC)
[9] = dose: 240.0 mg/kg/injection, schedule: Q01DX005 (ip), vehicle: Klucel (hydroxypropylcellulose) (HPC)
[10] = dose: 50.0 mg/kg/injection, schedule: Q01DX009 (ip), vehicle: saline with Tween-80
[11] = dose: 100.0 mg/kg/injection, schedule: Q04DX003 (ip), vehicle: saline with Tween-80
[12] = dose: 200.0 mg/kg/injection, schedule: Q04DX003 (ip), vehicle: saline with Tween-80
[13] = dose: 50.0 mg/kg/injection, schedule: Q01DX009 (ip), vehicle: Klucel (hydroxypropylcellulose) (HPC)
[14] = dose: 100.0 mg/kg/injection, schedule: Q01DX009 (ip), vehicle: Klucel (hydroxypropylcellulose) (HPC)
[15] = dose: 200.0 mg/kg/injection, schedule: Q01DX009 (ip), vehicle: Klucel (hydroxypropylcellulose) (HPC)
[16] = dose: 60.0 mg/kg/injection, schedule: Q01DX005 (ip), vehicle: saline with Tween-80
[17] = dose: 120.0 mg/kg/injection, schedule: Q01DX005 (ip), vehicle: saline with Tween-80

Measured: T/C

CCN(CC)CCSc1nnc(-c2ccc3c(c2)OCO3)o1
inactive: dose: 50.0 mg/kg/injection, schedule: Q04DX003 (ip), vehicle: water 99 % of control | dose: 100.0 mg/kg/injection, schedule: Q04DX003 (ip), vehicle: water 99 % of control | dose: 200.0 mg/kg/injection, schedule: Q04DX003 (ip), vehicle: water 101 % of control

CC(C)(C)N=C(Nc1ccccc1Cl)C(Cl)CSc1ccccc1 (stereo not given)
inactive: [1] 100 % of control and 102 % of control | [2] 100 % of control and 98 % of control | [3] 105 % of control

O=c1[nH]c2ccccc2[nH]c1=O
inactive: [4] 100 % of control | [5] 94 % of control | [6] 92 % of control | dose: 200.0 mg/kg/injection, schedule: Q01DX009 (ip), vehicle: saline 100 % of control and 97 % of control | dose: 400.0 mg/kg/injection, schedule: Q01DX009 (ip), vehicle: saline 88 % of control

O=C(O)/C=C/c1c2ccc(=O)cc-2oc2cc(O)ccc12
inactive: [7] 103 % of control | [8] 103 % of control | [9] 91 % of control

CC1(C)OC2COC3OC(C)(C)OC3(/C=N\NC(=O)c3cc4cc(OCc5ccccc5)ccc4[nH]3)C2O1 (stereo not given)
inactive: [1] 101 % of control | [2] 95 % of control | [3] 97 % of control

O=C1C2C3C=CC(O3)C2C(=O)N1CCN1CCOCC1 (stereo not given)
inactive: dose: 25.0 mg/kg/injection, schedule: Q01DX005 (ip), vehicle: water 96 % of control | dose: 50.0 mg/kg/injection, schedule: Q01DX005 (ip), vehicle: water 97 % of control | dose: 100.0 mg/kg/injection, schedule: Q01DX005 (ip), vehicle: other 93 % of control | dose: 100.0 mg/kg/injection, schedule: Q01DX005 (ip), vehicle: water 102 % of control | dose: 200.0 mg/kg/injection, schedule: Q01DX005 (ip), vehicle: other 101 % of control

O=C(N/N=C\C12CC3CC(CC(C3)C1)C2)c1ccncc1
inactive: [10] 96 % of control | [5] 90 % of control

[Co].[N-]=C=S.[N-]=C=S.[N-]=C=S.[NH-]CC[N-]CC[NH-]
inactive: dose: 2.5 mg/kg/injection, schedule: Q01DX009 (ip), vehicle: saline 114 % of control | dose: 5.0 mg/kg/injection, schedule: Q01DX009 (ip), vehicle: saline 114 % of control | dose: 10.0 mg/kg/injection, schedule: Q01DX009 (ip), vehicle: saline 107 % of control | dose: 22.0 mg/kg/injection, schedule: Q01DX009 (ip), vehicle: saline 88 % of control | dose: 44.0 mg/kg/injection, schedule: Q01DX009 (ip), vehicle: saline 100 % of control | [4] 118 % of control

CC(=O)NCC(C)C
inactive: dose: 100.0 mg/kg/injection, schedule: Q01DX001 (ip), vehicle: saline 100 % of control | dose: 200.0 mg/kg/injection, schedule: Q01DX001 (ip), vehicle: saline 100 % of control | dose: 400.0 mg/kg/injection, schedule: Q01DX001 (ip), vehicle: saline 100 % of control

CC(=O)OCC12C(=O)CC(C)C3(CC(c4ccoc4)OC3=O)C1CCC(=O)C2(O)CCl (stereo not given)
inactive: dose: 0.75 mg/kg/injection, schedule: Q01DX005 (ip), vehicle: saline + alcohol 96 % of control | dose: 1.5 mg/kg/injection, schedule: Q01DX005 (ip), vehicle: saline + alcohol 106 % of control | dose: 3.0 mg/kg/injection, schedule: Q01DX005 (ip), vehicle: saline + alcohol 103 % of control | dose: 6.0 mg/kg/injection, schedule: Q01DX005 (ip), vehicle: saline + alcohol 108 % of control | dose: 12.0 mg/kg/injection, schedule: Q01DX005 (ip), vehicle: saline + alcohol 106 % of control | dose: 12.5 mg/kg/injection, schedule: Q01DX005 (ip), vehicle: saline + Tween-80 + alcohol 90 % of control | dose: 25.0 mg/kg/injection, schedule: Q01DX005 (ip), vehicle: saline + Tween-80 + alcohol 90 % of control | dose: 50.0 mg/kg/injection, schedule: Q01DX005 (ip), vehicle: saline + Tween-80 + alcohol 93 % of control | dose: 150.0 mg/kg/injection, schedule: Q01DX005 (ip), vehicle: saline + Tween-80 + alcohol 100 % of control

CCC(=O)N1C(=O)C(C)C23c4cccc([N+](=O)[O-])c4C(=O)N2CCCN13 (stereo not given)
inactive: [7] 100 % of control | [8] 97 % of control | [9] 93 % of control

CN(C)C(=N)N(C)C
inactive: dose: 25.0 mg/kg/injection, schedule: Q01DX009 (ip), vehicle: saline with Tween-80 100 % of control | [10] 100 % of control | [5] 95 % of control

CC1CCCN(c2cc3nc[nH]c(=O)c3cc2[N+](=O)[O-])C1 (stereo not given)
inactive: dose: 100.0 mg/kg/injection, schedule: Q04DX003 (ip), vehicle: Klucel (hydroxypropylcellulose) (HPC) 103 % of control | dose: 200.0 mg/kg/injection, schedule: Q04DX003 (ip), vehicle: Klucel (hydroxypropylcellulose) (HPC) 100 % of control | dose: 400.0 mg/kg/injection, schedule: Q04DX003 (ip), vehicle: Klucel (hydroxypropylcellulose) (HPC) 99 % of control

Cn1c(C(C)(O)c2cc3c(Cl)nccc3n2C)cc2c(Cl)nccc21
inactive: [1] 103 % of control | [2] 105 % of control | [3] 106 % of control

CCCCCCCCCCNCCSSCCNC(C)=O
inactive: dose: 1.56 mg/kg/injection, schedule: Q01DX005 (ip), vehicle: Klucel (hydroxypropylcellulose) (HPC) 103 % of control | dose: 3.12 mg/kg/injection, schedule: Q01DX005 (ip), vehicle: Klucel (hydroxypropylcellulose) (HPC) 100 % of control | dose: 6.25 mg/kg/injection, schedule: Q01DX005 (ip), vehicle: Klucel (hydroxypropylcellulose) (HPC) 105 % of control | dose: 12.5 mg/kg/injection, schedule: Q01DX005 (ip), vehicle: Klucel (hydroxypropylcellulose) (HPC) 104 % of control | dose: 25.0 mg/kg/injection, schedule: Q01DX005 (ip), vehicle: Klucel (hydroxypropylcellulose) (HPC) 102 % of control | [1] 98 % of control and 103 % of control

CC(=O)NS(=O)(=O)c1ccc(N=NC2C(=O)N(C(=O)c3cccnc3)N=C2C)cc1 (stereo not given)
inactive: [11] 101 % of control | [12] 104 % of control | dose: 400.0 mg/kg/injection, schedule: Q04DX003 (ip), vehicle: saline with Tween-80 109 % of control

C[C@]12CC[C@H]3[C@@H](CCC4=CC(=O)CC[C@@]43C)[C@@H]1CC[C@@H]2C(=O)C=O
inactive: [13] 109 % of control | [14] 106 % of control | [15] 103 % of control

[NH-]CC([NH-])=O.[NH-]CC([NH-])=O.[Ni]
inactive: dose: 1.0 mg/kg/injection, schedule: Q01DX009 (ip), vehicle: saline 100 % of control | dose: 2.0 mg/kg/injection, schedule: Q01DX009 (ip), vehicle: saline 95 % of control | dose: 4.0 mg/kg/injection, schedule: Q01DX009 (ip), vehicle: saline 100 % of control | dose: 8.0 mg/kg/injection, schedule: Q01DX009 (ip), vehicle: saline 100 % of control

CC(=O)OCC1OC(n2nc(-c3ccccc3)c(=O)n(-c3ccccc3)c2=O)C(OC(C)=O)C(OC(C)=O)C1OC(C)=O (stereo not given)
inactive: [11] 110 % of control | [12] 111 % of control

CCCCCCC1(/C=C\c2ccc(Cl)cc2Cl)OCCO1
inactive: [13] 103 % of control | [14] 110 % of control | [15] 101 % of control

CC12OC(=O)C(C(N)=O)=C1C=C(c1ccccc1)CC2c1ccccc1 (stereo not given)
inactive: [16] 96 % of control | [17] 96 % of control | dose: 240.0 mg/kg/injection, schedule: Q01DX005 (ip), vehicle: saline with Tween-80 89 % of control

CCOC(=O)N1CCN(c2cc(C)nc3cc(OC)ccc23)CC1
inactive: [16] 88 % of control | [17] 94 % of control

S=C1SCN(Cc2ccco2)CN1Cc1ccco1
inactive: [10] 94 % of control | [5] 94 % of control

Cc1cc(O)c(C(c2ccncc2)c2c(O)cc(C)[nH]c2=O)c(=O)[nH]1
inactive: [10] 102 % of control | [5] 95 % of control | [6] 94 % of control

Cc1cc2ncc(-c3ccccc3)nc2cc1C
inactive: dose: 25.0 mg/kg/injection, schedule: Q01DX001 (ip), vehicle: saline with Tween-80 100 % of control | dose: 50.0 mg/kg/injection, schedule: Q01DX001 (ip), vehicle: saline with Tween-80 100 % of control | dose: 100.0 mg/kg/injection, schedule: Q01DX001 (ip), vehicle: saline with Tween-80 89 % of control and 90 % of control

CCc1cccc(CC)c1NC(=O)NN(CC)CC
inactive: [16] 93 % of control | [17] 103 % of control
